Laboratory results taken from patent US11612615B2, “Combined administration of cysteine-aspartic protease inhibitors with P2Y12 receptor antagonists protects the heart against myocardial infarction” (The University of South Alabama, priority 2017, dated 2023).
Entries after “also recorded” stand apart in the source; their conditions may differ.

Legend:
protein carbonylation = assay: 60-min ischemia/30-min reperfusion: protein oxidation (carbonylation) oxyblotting of heart tissue; type: in vivo, rat; settings: ischemic and non-ischemic tissues, FIG. 5D
Procedure: (§1) Applicants' standard in situ open chest LAD occlusion protocol was modified to examine effects of a 30-min reperfusion period on heart tissue enzymes and metabolic function. Two groups were tested with infusions occurring 5-min prior to reperfusion: 1) vehicle control DMSO (the VX-765 solvent) was administered as (1.0 mL of 100% DMSO)×(kg body weight) with the final infusion volume adjusted to 0.9 mL with normal saline; and 2) VX-765, 32 mg/kg. Immediately prior to experiment terminus, blood was collected and serum assayed by ELISA for levels of circulating IL-113. At experiment terminus, the heart was removed from the chest and mounted on a Langendorff apparatus where it was perfused with normal saline. The coronary branch was re-occluded and 15 μm fluorescent microspheres were infused to identify the ischemic zone followed by acquisition of biopsies from both ischemic and non-ischemic zones. […] Normalized amounts of protein were resolved by SDS-PAGE (4-20% Tris-Glycine gradient gels) and analyzed by immunoblotting using antibodies against Caspase-1, glyceraldehyde-3-phosphate dehydrogenase (GAPDH), Aldolase-A, and Hexokinase II. […] For all blotting experiments, protein transfer membranes were first stained with Coomassie Brilliant Blue (CBB) and analyzed on the LiCor Odyssey for total protein levels. […]

[1] = test system: blood-free isolated rat hearts (global I/R injury); assay: Ex vivo isolated buffer-perfused heart, 40-min global ischemia/120-min reperfusion
Procedure: To examine effects of VX-765 on blood-free isolated hearts, rats were anesthetized as described above. Animals were intubated through tracheotomy and positive pressure ventilation initiated with 100% oxygen. A thoracotomy was performed and the heart was quickly excised from the chest cavity for mounting on a Langendorff apparatus (within one minute). The coronary arteries were retroperfused with Krebs buffer through the aortic root and a latex balloon was placed in the lumen of the left ventricle allowing volume adjustment to 100 mmHg peak ventricular pressure. After a 20-min period of equilibration, perfusion was stopped for 40-min to induce global ischemia. The heart was maintained in a water-jacketed chamber filled with buffer during the occlusion period at a constant temperature of 37° C. Perfusion was re-initiated and continued for 120-min. The balloon was deflated at the beginning of reperfusion so subendocardial perfusion would not be impaired by any elevation in luminal diastolic pressure. The balloon was reinflated to zero diastolic pressure (unstressed ventricular volume) so final developed pressure could be measured. The coronary effluent was sampled immediately prior to ischemia, immediately at reperfusion, and serially thereafter every 20-min. The heart was perfused with buffer containing either vehicle (DMSO) or VX-765 for 10-min prior to ischemia and again during reperfusion. Two groups were tested: 1) DMSO vehicle control perfused at 0.5 mL/L of buffer and 2) VX-765, 30 μM final concentration. After 120 minutes reperfusion, developed pressure was measured as the difference between end-systolic and end-diastolic left ventricular pressure with a transducer attached to the intraventricular balloon. Infarct size was measured as above. Collected effluent was analyzed for lactate dehydrogenase (LDH) as previously described. An independent aliquot was concentrated 20-fold using a 3,000 MW cut-off ultrafilter (Millipore) and assayed for IL-113 by ELISA (ThermoFisher Scientific).

[2] = test system: buffer perfused mouse hearts (global ischemia); assay: Isolated buffer-perfused mouse heart, 35 or 50 min global ischemia/2 h reperfusion, infarct size; design: species or system C57BL/6 mice; settings: for infarct size reduction (in words): mouse heart, 30 uM VX-765 10 min prior to ischemia and throughout reperfusion, 9 uM emricasan first 20 min of reperfusion, FIG. 9
Procedure: Hearts were removed from pentobarbital-anesthetized C57BL/6 mice and quickly (less than 3 min) mounted on a Langendorff perfusion apparatus where they were retroperfused with Krebs buffer at 100 mmHg pressure and at 37 Deg C. After 20 min perfusion to equilibrate the perfusion was stopped to create global ischemia. After and index ischemia of either 35 or 50 min the hearts were reperfused for 2 h and infarct size was measured by triphenyltetrazolium staining. Treatments included 30 uM VX-765 for 10 min prior to ischemia and throughout reperfusion, 9 uM emricasan for the first 20 min of reperfusion only, Ischemic preconditioning (IPC) with three cycles of 5 min ischemic Plus 5 min reperfusion prior to the index ischemia, or IPC+emricasan.

IL-1β = assay: In situ open-chest LAD occlusion, 60-min ischemia/30-min reperfusion: serum IL-1β ELISA; type: in vivo, rat; settings: VX-765 32 mg/kg 5-min prior to reperfusion, FIG. 4A
Procedure: as §1

[3] = test system: I/R injury of the heart (LAD occlusion); assay: In situ open-chest LAD occlusion, 60-min ischemia/120-min reperfusion, infarct size by TTC staining; type: in vivo, Sprague-Dawley rats; settings: for infarct size / cardioprotection (in words): open chest rat hearts, 60 min ischemia/120-min reperfusion, treatment just prior to reperfusion; for infarction, % of the risk zone: rat, 60-min LAD ligation/120-min reperfusion, VX-765 32 mg/kg iv 5 min, cangrelor 60 μg/kg iv bolus + 6 μg/kg/min, ticagrelor 30 mg/kg ip 10 min prior to reperfusion, mean ± standard error
[4] = test system: mitochondrial complexes (Complex-I, Complex-III); assay: 60-min ischemia/30-min reperfusion: high resolution respirometry of heart tissue biopsies; type: in vivo, rat
Procedure: (§2) Applicants' standard in situ open chest LAD occlusion protocol was modified to examine effects of a 30-min reperfusion period on heart tissue enzymes and metabolic function. Two groups were tested with infusions occurring 5-min prior to reperfusion: 1) vehicle control DMSO (the VX-765 solvent) was administered as (1.0 mL of 100% DMSO)×(kg body weight) with the final infusion volume adjusted to 0.9 mL with normal saline; and 2) VX-765, 32 mg/kg. Immediately prior to experiment terminus, blood was collected and serum assayed by ELISA for levels of circulating IL-113. At experiment terminus, the heart was removed from the chest and mounted on a Langendorff apparatus where it was perfused with normal saline. The coronary branch was re-occluded and 15 μm fluorescent microspheres were infused to identify the ischemic zone followed by acquisition of biopsies from both ischemic and non-ischemic zones. Viable samples were immediately prepared for high resolution respirometry using the Oroboros oxygraph O2K as previously described. In parallel, a portion of the biopsied tissue was immediately ejected into liquid nitrogen and stored at −80° C. Subsequently, tissues were homogenized and solubilized for analyses of total protein. Normalized amounts of protein were resolved by SDS-PAGE (4-20% Tris-Glycine gradient gels) and analyzed by immunoblotting using antibodies against Caspase-1, glyceraldehyde-3-phosphate dehydrogenase (GAPDH), Aldolase-A, and Hexokinase II. In a separate set of blots, samples were assayed for protein oxidation (carbonylation) using the oxidized protein western blot kit (Abcam, oxyblotting). For all blotting experiments, protein transfer membranes were first stained with Coomassie Brilliant Blue (CBB) and analyzed on the LiCor Odyssey for total protein levels. These CBB data were used to normalize all immuno- and oxyblotting data.
Tissue mitochondrial function is reported as the amount of oxygen consumed (i.e., JO2). In this protocol, heart tissues are harvested 30-min after reperfusion to ensure tissue retention of mitochondrial function and permeabilized with detergents to allow direct assessment of each mitochondrial complex via addition of specific substrates (i.e., electron donors) and poisons. Using this early 30-min reperfusion time point allows differentiation of dysfunctional mitochondrial complex activities from the absolute loss of function occurring at later time points after cell death had ensued. As a further level of experimental control, mitochondrial complex activities were assayed in non-ischemic and ischemic zone tissues isolated from animals treated with vehicle control (DMSO) or the Caspase-1 inhibitor VX-765.

[5] = test system: Caspase-1, GAPDH, Aldolase-A, Hexokinase II; assay: 60-min ischemia/30-min reperfusion: immunoblotting of heart tissue biopsies; type: in vivo, rat
Procedure: as §2

[6] = test system: I/R injury of the heart (LAD occlusion); settings: VX-765 16 mg/kg body weight 30-min prior to onset of ischemia; cited from earlier work
coronary I/R = settings: rat models of coronary I/R; cited from earlier work

## CCO[C@@H]1OC(=O)C[C@@H]1NC(=O)[C@@H]1CCCN1C(=O)[C@@H](NC(=O)c1ccc(N)c(Cl)c1)C(C)(C)C [VX-765, (S)-1-((S)-2-{[1-(4-amino-3-chloro-phenyl)-methanoyl]-amino}-3,3-dimethyl-butanoyl)-pyrrolidine-2-carboxylic acid ((2R,3S)-2-ethoxy-5-oxo-tetrahydro-furan-3-yl)-amide]
Protein carbonylation
  protein carbonylation: no differences in protein carbonylation
[1]; VX-765 30 μM, FIG. 3C
  LDH release into coronary effluent: all but abolished
[1]; blood free isolated buffer-perfused heart, FIG. 3
  protection against global I/R injury (in words): protects against global I/R injury
[1]; end of 120-min reperfusion, VX-765 30 μM
  left ventricular developed pressure: 20.5±4.2 mmHg
[1]; isolated rat heart, VX-765 30 μM in perfusate prior to ischemia and during reperfusion
  average infarction: 45.8±1.5%
[2]
  infarct size reduction (in words): similarly reduced infarct size; also recorded: equipotent for infarct size reduction
IL-1β
  IL-1β level in blood, vehicle (DMSO) compared to VX-765: significantly higher levels of IL-113 in blood when compared to animals treated with VX-765
[3]; VX-765 iv prior to ischemia, data not shown
  dose dependence of infarct size reduction (pilot studies): independent of the dose above 16 mg/kg
[3]
  infarct size / cardioprotection (in words): reduced infarct size
  infarction, % of the risk zone: 38.6±3.9%
[4]; compared to vehicle, FIG. 5C
  Complex-III activity: no significant differences
[4]; different substrates, FIG. 7
  JO2 in different states of mitochondrial respiration: none of the heart tissues from any group displayed JO2 differences
[4]; non-ischemic and ischemic tissues, compared to vehicle, FIG. 5B
  Complex-I activity: significantly decreased Complex-I activity
[4]; tissues reperfused for 30-min, FIG. 5A
  respiratory ratio (mitochondrial fitness): not different among all groups
[5]; ischemic tissue, VX-765 32 mg/kg, FIG. 4B
  levels of active Caspase-1 in tissue: did not prevent Caspase-1 activation
[5]; ischemic zone, FIG. 4C
  GAPDH degradation: prevented degradation of GAPDH in the ischemic zone
[5]; ischemic zone, FIG. 4D
  aldolase-A degradation: partially prevented degradation of aldolase-A
[5]; ischemic zone, FIG. 4E
  hexokinase II degradation (negative control): no effect in hexokinase II
[6]
  cardioprotection, previously reported: extremely cardioprotective

## zVAD
Coronary I/R
  infarct size: reduced infarct size

## CCCSc1nc(N[C@@H]2C[C@H]2c2ccc(F)c(F)c2)c2nnn([C@@H]3C[C@H](OCCO)[C@@H](O)[C@H]3O)c2n1 [ticagrelor]
[3]; IPOC three cycles of 30 s reperfusion/30 s occlusion at end of 60 min ischemia, FIG. 10
  protection when combined with ischemic postconditioning (IPOC): no more protective than either alone
[3]
  infarct size / cardioprotection (in words): reduced infarct size; also recorded: no more cardioprotective than cangrelor
  infarction, % of the risk zone: 42.8±3.3%

## C[C@H](NC(=O)C(=O)Nc1ccccc1C(C)(C)C)C(=O)N[C@@H](CC(=O)O)C(=O)COc1c(F)c(F)cc(F)c1F [emricasan]
[2]; index ischemia 50 min, IPC three cycles 5 min ischemia/5 min reperfusion, 9 uM emricasan
  protection in combination with ischemic preconditioning (IPC): additive protection
[2]
  infarct size reduction (in words): similarly reduced infarct size; also recorded: equipotent for infarct size reduction
[2]; listed as Emricasan
  infarct size reduction (in words): as protective as VX-765 pretreatment

## CSCCNc1nc(SCCC(F)(F)F)nc2c1ncn2[C@@H]1O[C@H](COP(=O)(O)OP(=O)(O)C(Cl)(Cl)P(=O)(O)O)[C@@H](O)[C@H]1O [cangrelor]
[3]
  infarct size / cardioprotection (in words): reduced infarct size
  infarction, % of the risk zone: 43.8±2.4%
